Bridge positions count the residues as written; N and C are the ends. Square brackets hold non-standard residues; d marks the D form. Peptide text beside a SMILES is read from it. * marks the point of attachment. X18 = N#Cc1ccc(-c2cc(C(=O)*)ccc2C#N)cc1; X4 = N#Cc1cccc(-c2cc(C(=O)*)ccc2C#N)c1; X21 = N#Cc1cccc(-c2cc(C(=O)*)ccn2)c1; X39 = COc1ccc(C(=O)*)cc1-c1ccccc1; X28 = O=C(c1ccc(Oc2ccccc2)nc1)*; Dab = NCC[C@H](N)C(=O)O; Dap = NC[C@H](N)C(=O)O
What was measured:
[1] = test system: PA-1646, polymyxin-resistant clinical isolate of Pseudomonas aeruginosa; format: cell-based; details: PA-1646, polymyxin-resistant clinical isolate of
Protocol: (§1) Minimum bactericidal concentration (MBC, mg/L), minimum inhibitory concentration (MIC, mg/L), and human renal proximal tubule epithelial cell line cytotoxicity concentration 50% (hRPTEC, TC50, micromolar) for compounds of Formula I are listed in Table 2. The compounds of Formula I were tested as the corresponding trifluoroacetate salt except for Example 1 which was tested as the sulfate salt. For Table 2 below: PMB=polymyxin B as the sulfate salt (Bedford Laboratories, pharmaceutical grade); PMB1=polymyxin B1 as the trifluoroacetate salt; Nona=polymyxin B nonapeptide as the trifluoroacetate salt. PMB1 and Nona were prepared using the solid phase methodology described in the experimental section herein.
(§2) The in vitro antibacterial activity of compounds of Formula I was evaluated by MIC testing according to Clinical and Laboratory Standards Institute (CLSI). See: Clinical and Laboratory Standards Institute. Methods for Dilution Antimicrobial Susceptibility Tests for Bacteria that Grow Aerobically; Approved Standard-Eighth Edition. CLSI document M7-A8 [ISBN 1-56238-689-1]. Clinical and Laboratory Standards Institute, 940 West Valley Road, Suite 1400, Wayne, Pa. 19087-1898 USA, 2006; also Clinical and Laboratory Standards Institute. Performance Standards for Antimicrobial Susceptibility Testing; Twentieth Informational Supplement. CLSI document M100-S20 [ISBN 1-56238-716-2]. Clinical and Laboratory Standards Institute. Methods for Determining Bactericidal Activity of Antimicrobial Agents; Approved Guideline. CLSI document M26-A (ISBN 1-56238-384-1). CLSI, 940 West Valley Road, Suite 1400, Wayne, Pa. 19087-1898 USA, 1999.
PA-1646 is a polymyxin-resistant clinical isolate of Pseudomonas aeruginosa obtained from JMI labs (www.jmilabs.com);

[2] = Cytotoxicity assay (LDH release), hRPTEC; format: cell-based, human; details: human
Protocol: as §1
Human Renal Proximal Tubule Epithelial cells (hRPTEC) were obtained from Lonza (Walkersville, Md., USA) and cultured in REGM (Renal Epithelial Cell Basal Medium supplemented with human epithelial growth factor, hydrocortisone, epinephrine, insulin, triiodothyronine, transferrin, gentamycin/amphotericin-B, and fetal bovine serum). The hRPTEC cells were seeded into 96-well plates and incubated at 37° C. in 5% CO2. Following a growth period of 72 hours, cells were treated with compounds at 100, 67, 44, 30, 20 and 13 micromolar for 24 hours at 37° C. in 5% CO2. The cell supernatant was then harvested for determination of LDH (lactate dehydrogenase) production. The Cytotoxicity Detection Kit from Roche was used for the measurement of LDH activity released from damaged cells. The Toxic Concentration 50% (TC50, micromolar) values were determined for each compound and compared to the control compounds (polymyxin B was used as a positive control and polymyxin B nonapepetide was used as negative control).

[3] = test system: EC-1, mouse virulent strain of Escherichia coli; format: cell-based; details: E. coli EC-1; overnight incubation, lower of duplicate values; trifluoroacetate salt (Example 1 and PMB sulfate)
Protocol: as §1, §2
(§3) The MIC determination is a standard laboratory method for evaluating the antibacterial activity of a compound. The MIC represents the lowest drug concentration that inhibits visible growth of bacteria following overnight incubation. […] Typically, the drug concentration range is broken down into 2-fold increments (e.g. 0.06 mg/L, 0.12 mg/L, 0.25 mg/L, 0.50 mg/L, 1.0 mg/L, etc.) and the various drug concentrations are all individually incubated overnight with approximately the same number of bacteria. The MIC is then determined by visually inspecting the drug effect at each concentration, and identifying the lowest drug concentration that has inhibited bacterial growth as compared to the drug free control. Typically, bacteria continue to grow at drug concentrations lower than the MIC and don't grow at concentrations at and above the MIC.
(§4) The MIC values described in Table 2 below were derived from assays wherein each test compound was evaluated in duplicate. In cases where the duplicate values varied by 0-2-fold, the lower of the two values was reported below. Generally speaking, if the duplicate values varied by more than 2-fold, the assay was considered non-valid and was repeated until the variation between duplicate runs was ≦2-fold. In line with the CLSI guidelines referred to above, both control organisms and reference compounds were utilized in each MIC assay to provide proper quality control. MIC values generated with these control organisms and reference compounds were required to fall within a defined range for the assay to be considered valid and be included herein. Those skilled in the art will recognize that MIC values can and do vary from experiment to experiment. Generally speaking, it should be recognized that MIC values often vary +/−2-fold from experiment to experiment. While a single MIC is reported for each compound and each microorganism, the reader should not conclude that each compound was only tested once. Several of the compounds were subjected to multiple tests. The data reported in Table 2 is reflective of the compounds relative activity and different MICs may have been generated on these occasions in line with the guidelines described above.
The following bacterial strains were used in these MIC determinations:
EC-1 is a mouse virulent strain of Escherichia coli.

[4] = test system: AB-1649, polymyxin-resistant clinical isolate of Acinetobacter baumannii; format: cell-based; details: AB-1649, polymyxin-resistant clinical isolate of
Protocol: as §1, §2
AB-1649 is a polymyxin-resistant clinical isolate of Acinetobacter baumannii obtained from JMI labs (www.jmilabs.com);

[5] = test system: PA-1646, polymyxin-resistant clinical isolate of Pseudomonas aeruginosa; format: cell-based; details: PA-1646, polymyxin-resistant clinical isolate of; remark: listed apart in the source
Protocol: as §1, §2, §3, §4
(§5) The following bacterial strains were used in these MIC determinations: […]

[6] = test system: AB-3167, clinical isolate of Acinetobacter baumannii; format: cell-based; details: AB-3167, clinical isolate of
Protocol: as §1, §2, §3, §4, §5

[7] = test system: AB-1649, polymyxin-resistant clinical isolate of Acinetobacter baumannii; format: cell-based; details: AB-1649, polymyxin-resistant clinical isolate of; remark: listed apart in the source
Protocol: as §1, §2, §3, §4, §5

[8] = test system: Pseudomonas aeruginosa strain PA01; format: cell-based; details: strain
Protocol: as §1, §2, §3, §4, §5

Compound | PA-1646 MBC [1] | CC50 at 24 h [2] | EC-1 MIC [3] | AB-1649 MBC [4] | PA-1646 MIC [5] | AB-3167 MIC [6] | AB-1649 MIC [7] | PA01 MIC [8]
CC(C)C[C@@H]1NC(=O)[C@@H](Cc2ccccc2)NC(=O)[C@H](CCN)NC(=O)[C@@H](NC(=O)[C@H](CN)NC(=O)[C@@H](NC(=O)[C@H](CCN)NC(=O)c2ccc(Oc3ccccc3)nc2)[C@@H](C)O)CCNC(=O)[C@H]([C@@H](C)O)NC(=O)[C@H](CCN)NC(=O)[C@H](CCN)NC1=O [Example 12] (X28-[Dab]T[Dap][Dab][Dab][dF]L[Dab][Dab]T; lactam 4-C) | 16 µg/mL | 61 µM | 0.25 µg/mL | 4 µg/mL | 4 µg/mL | 0.25 µg/mL | 2 µg/mL | 1 µg/mL
CC(C)C[C@@H]1NC(=O)[C@@H](Cc2ccccc2)NC(=O)[C@H](CCN)NC(=O)[C@@H](NC(=O)[C@H](CN)NC(=O)[C@@H](NC(=O)[C@H](CCN)NC(=O)c2ccc(C#N)c(-c3ccc(C#N)cc3)c2)[C@@H](C)O)CCNC(=O)[C@H]([C@@H](C)O)NC(=O)[C@H](CCN)NC(=O)[C@H](CCN)NC1=O [Example 13] (X18-[Dab]T[Dap][Dab][Dab][dF]L[Dab][Dab]T; lactam 4-C) | 4 µg/mL | 58 µM | 0.25 µg/mL | 2 µg/mL | 2 µg/mL | 0.25 µg/mL | 2 µg/mL | 0.5 µg/mL
CC(C)C[C@@H]1NC(=O)[C@@H](Cc2ccccc2)NC(=O)[C@H](CCN)NC(=O)[C@@H](NC(=O)[C@H](CN)NC(=O)[C@@H](NC(=O)[C@H](CCN)NC(=O)c2ccc(C#N)c(-c3cccc(C#N)c3)c2)[C@@H](C)O)CCNC(=O)[C@H]([C@@H](C)O)NC(=O)[C@H](CCN)NC(=O)[C@H](CCN)NC1=O [Example 14] (X4-[Dab]T[Dap][Dab][Dab][dF]L[Dab][Dab]T; lactam 4-C) | 16 µg/mL | 43 µM | 0.5 µg/mL | 2 µg/mL | 4 µg/mL | 0.5 µg/mL | 2 µg/mL | 0.5 µg/mL
CC(C)C[C@@H]1NC(=O)[C@@H](Cc2ccccc2)NC(=O)[C@H](CCN)NC(=O)[C@@H](NC(=O)[C@H](CN)NC(=O)[C@@H](NC(=O)[C@H](CCN)NC(=O)c2ccnc(-c3cccc(C#N)c3)c2)[C@@H](C)O)CCNC(=O)[C@H]([C@@H](C)O)NC(=O)[C@H](CCN)NC(=O)[C@H](CCN)NC1=O [Example 15] (X21-[Dab]T[Dap][Dab][Dab][dF]L[Dab][Dab]T; lactam 4-C) | 16 µg/mL | 43 µM | 0.125 µg/mL | 2 µg/mL | 4 µg/mL | 0.25 µg/mL | 2 µg/mL | 0.5 µg/mL
COc1ccc(C(=O)N[C@@H](CCN)C(=O)N[C@H](C(=O)N[C@@H](CN)C(=O)N[C@H]2CCNC(=O)[C@H]([C@@H](C)O)NC(=O)[C@H](CCN)NC(=O)[C@H](CCN)NC(=O)[C@H](CC(C)C)NC(=O)[C@@H](Cc3ccccc3)NC(=O)[C@H](CCN)NC2=O)[C@@H](C)O)cc1-c1ccccc1 [Example 16] (X39-[Dab]T[Dap][Dab][Dab][dF]L[Dab][Dab]T; lactam 4-C) | 2 µg/mL | 27 µM | 0.25 µg/mL | 2 µg/mL | 1 µg/mL | 0.5 µg/mL | 2 µg/mL | 0.5 µg/mL
